The values that follow come from patent publication EP4748840A1, “IMIDAZO[1,2-A]PYRIDINE TYPE IRAK DEGRADATION AGENT AND USE THEREOF” (TAINUORUI (TIANJIN) BIOTECHNOLOGY CO., LTD, priority 2023, dated 2025).

The structures appear in SMILES notation.

For the assay, the target named is T1, IRAK4 (Homo sapiens, UniProt Q9NWZ3).
T1 construct: expressed in transfected cells; host or cells: THP1 (THP1-HIBiT-IRAK4 engineered line)
T1 sequence (Q9NWZ3 1-460): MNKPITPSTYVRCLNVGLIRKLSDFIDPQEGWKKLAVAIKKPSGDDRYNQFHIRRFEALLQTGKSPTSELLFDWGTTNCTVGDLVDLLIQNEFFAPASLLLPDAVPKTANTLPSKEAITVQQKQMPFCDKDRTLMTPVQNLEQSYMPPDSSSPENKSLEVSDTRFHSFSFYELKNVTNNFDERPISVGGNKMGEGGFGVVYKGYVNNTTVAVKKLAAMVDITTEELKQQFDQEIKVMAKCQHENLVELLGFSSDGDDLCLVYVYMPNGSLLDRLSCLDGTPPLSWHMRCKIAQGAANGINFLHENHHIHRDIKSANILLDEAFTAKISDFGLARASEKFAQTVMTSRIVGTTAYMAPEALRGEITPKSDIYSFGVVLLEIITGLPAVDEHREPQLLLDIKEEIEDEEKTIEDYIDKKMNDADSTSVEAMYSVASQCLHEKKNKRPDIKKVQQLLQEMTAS
The assay can be described thus: HiBiT-based intracellular degradation assay of THP1-HIBiT-IRAK4 cells. Type of assay: cell-based. Conditions: half-maximal degradation concentration of IRAK4 protein, 24 h incubation. As to the method: HiBiT-based intracellular degradation assay of THP1-HIBiT-IRAK4 cells
THP1-HIBiT-IRAK4 cells were cultured in RPMI 1640 medium supplemented with 10% fetal bovine serum (FBS) and 1% penicillin-streptomycin (PS) (37°C and 5% CO2). The THP1-HIBiT-IRAK4 cells were inoculated in a 384-well plate at 5000 cells/40 µL/well. Compound solutions with different concentrations were added at 40 nL/well and incubated for 24 h at 37°C in 5% CO2. HiBiT lysis detection reagents were added to the wells, the plate was incubated for 30 min at room temperature, and luminescence values were read on Envision. [formula]
The DC50 (half-maximal degradation concentration) of each compound was obtained using XLfit software and the following nonlinear fitting equation: Y = bottom + (top−bottom)/(1+10^(∧)((LogDC50−X)×Hillslope)). [formula]
X denotes a log value of the compound concentration.
Y denotes the degradation rate.
Table 1 lists the results of DC50 values of IRAK4 protein degradation. […]
(With HiBiT, luminescence reflects the tagged protein that the partner subunit can reach.)

A word on the DC50: it is the concentration at which degradation of the target reaches its halfway point. The low end stands for degradation at low concentration, the high end for degradation only at high concentration. As for `CC(C)(O)c1cc2nc(C3CCN(CC4CCN(c5cc6c(cc5F)C(=O)N([C@@H]5CCC(=O)NC5=O)C6=O)CC4)CC3)cn2cc1NC(=O)c1cccc(C(F)(F)F)n1` [Example 25, (R)-N-(2-(1-((1-(2-(2,6-dioxopiperidin-3-yl)-6-fluoro-1,3-dioxoisoindolin-5-yl)piperidin-4-yl)methyl)piperidin-4-yl)-7-(2-hydroxypropan-2-yl)imidazo[1,2-a]pyridin-6-yl)-6-(trifluoromethyl)pyridine-2-carboxamide], the DC50 was 12.8 nM.
With `CC(C)(O)c1cc2nc(C3CCN(CC(=O)N4CC5(CCN(c6ccc7c(c6)C(=O)N(C6CCC(=O)NC6=O)C7=O)CC5)C4)CC3)cn2cc1NC(=O)c1cccc(C(F)(F)F)n1` (centres unmarked) [Example 6, N-(2-(1-(2-(7-(2-(2,6-dioxopiperidin-3-yl)-1,3-dioxoisoindolin-5-yl)-2,7-diazaspiro[3.5]nonan-2-yl)-2-oxoethyl)piperidin-4-yl)-7-(2-hydroxypropan-2-yl)imidazo[1,2-a]pyridin-6-yl)-6-(trifluoromethyl)pyridine-2-carboxamide] the figure was 7.83 nM; with `CC(C)(O)c1cc2nc(C3CCN(CC(=O)N4CCN(c5ccc6c(c5)C(=O)N(C5CCC(=O)NC5=O)C6=O)CC4)CC3)cn2cc1NC(=O)c1cccc(C(F)(F)F)n1` (centres unmarked) [Example 2, N-(2-(1-(2-(4-(2-(2,6-dioxopiperidin-3-yl)-1,3-dioxoisoindolin-5-yl)piperazin-1-yl)-2-oxoethyl)piperidin-4-yl)-7-(2-hydroxypropan-2-yl)imidazo[1,2-a]pyridin-6-yl)-6-(trifluoromethyl) pyridine-2-carboxamide], 4.46 nM.
`CC(C)(O)c1cc2nc(C3CCN(CC4C5CN(c6ccc7c(c6)C(=O)N(C6CCC(=O)NC6=O)C7=O)CC45)CC3)cn2cc1NC(=O)c1cccc(C(F)(F)F)n1` (centres unmarked) [Example 24, N-(2-(1-((3-(2-(2,6-dioxopiperidin-3-yl)-1,3-dioxoisoindolin-5-yl)-3-azabicyclo[3.1.0]hexan-6-yl)methyl)piperidin-4-yl)-7-(2-hydroxypropan-2-yl)imidazo[1,2-a]pyridin-6-yl)-6-(trifluoromethyl)pyridine-2-carboxamide] had a DC50 of 1.87 nM.
Under `CC(C)(O)c1cc2nc(C3CCN(CCC(=O)N4CCN(c5ccc6c(c5)C(=O)N(C5CCC(=O)NC5=O)C6=O)CC4)CC3)cn2cc1NC(=O)c1cccc(C(F)(F)F)n1` (centres unmarked) [Example 3, N-(2-(1-(3-(4-(2-(2,6-dioxopiperidin-3-yl)-1,3-dioxoisoindolin-5-yl)piperazin-1-yl)-3-oxopropyl)piperidin-4-yl)-7-(2-hydroxypropan-2-yl)imidazo[1,2-a]pyridin-6-yl)-6-(trifluoromethyl)pyridine-2-carboxamide] stands 13.9 nM.
Under `COc1cc2nc(C3CCN(CC4CCN(c5ccc6c(c5)C(=O)N(C5CCC(=O)NC5=O)C6=O)CC4)CC3)cn2cc1NC(=O)c1cccc(C(F)(F)F)n1` (centres unmarked) [Example 8, N-(2-(1-((1-(2-(2,6-dioxopiperidin-3-yl)-1,3-dioxoisoindolin-5-yl)piperidin-4-yl)methyl)piperidin-4-yl)-7-methoxyimidazo[1,2-a]pyridin-6-yl)-6-(trifluoromethyl)pyridine-2-carboxamide] stands 16.3 nM; under `CC(C)(O)c1cc2nc(C3CCN(CCN4CCC5(CC4)CN(c4ccc6c(c4)C(=O)N(C4CCC(=O)NC4=O)C6=O)C5)CC3)cn2cc1NC(=O)c1cccc(C(F)(F)F)n1` (centres unmarked) [Example 16, N-(2-(1-(2-(2-(2-(2,6-dioxopiperidin-3-yl)-1,3-dioxoisoindolin-5-yl)-2,7-diazaspiro[3.5]nonan-7-yl)ethyl)piperidin-4-yl)-7-(2-hydroxypropan-2-yl)imidazo[1,2-a]pyridin-6-yl)-6-(trifluoromethyl)pyridine-2-carboxamide], 3.33 nM; under `CC(C)(O)c1cc2nc(C3CCN(CCC4CCN(c5ccc6c(c5)C(=O)N(C5CCC(=O)NC5=O)C6=O)CC4)CC3)cn2cc1NC(=O)c1cccc(C(F)(F)F)n1` (centres unmarked) [Example 18, N-(2-(1-(2-(1-(2-(2,6-dioxopiperidin-3-yl)-1,3-dioxoisoindolin-5-yl)piperidin-4-yl)ethyl)piperidin-4-yl)-7-(2-hydroxypropan-2-yl)imidazo[1,2-a]pyridin-6-yl)-6-(trifluoromethyl)pyridine-2-carboxamide], 4.29 nM.
In turn, `COc1cc2nc(C3CCN(CCN4CCN(c5ccc6c(c5)C(=O)N(C5CCC(=O)NC5=O)C6)CC4)CC3)cn2cc1NC(=O)c1cccc(C(F)(F)F)n1` (centres unmarked) [Example 14, N-(2-(1-(2-(4-(2-(2,6-dioxopiperidin-3-yl)-3-oxoisoindolin-5-yl)piperazin-1-yl)ethyl)piperidin-4-yl)-7-methoxyimidazo[1,2-a]pyridin-6-yl)-6-(trifluoromethyl)pyridine-2-carboxamide] displayed a DC50 of 1.33 nM.
Regarding `CC(C)(O)c1cc2nc(C3CCN(CCN4CCN(c5ccc6c(c5)C(=O)N(C5CCC(=O)NC5=O)C6=O)CC4)CC3)cn2cc1NC(=O)c1cccc(C(F)(F)F)n1` (centres unmarked) [Example 9, N-(2-(1-(2-(4-(2-(2,6-dioxopiperidin-3-yl)-1,3-dioxoisoindolin-5-yl)piperazin-1-yl)ethyl)piperidin-4-yl)-7-(2-hydroxypropan-2-yl)imidazo[1,2-a]pyridin-6-yl)-6-(trifluoromethyl)pyridine-2-carboxamide], the DC50 amounted to 0.87 nM.
With `CC(C)(O)c1cc2nc(C3CCN(CCOCCNc4cccc5c4C(=O)N(C4CCC(=O)NC4=O)C5=O)CC3)cn2cc1NC(=O)c1cccc(C(F)(F)F)n1` (centres unmarked) [Comparative Example 1, N-(2-(1-(2-(2-((2-(2,6-dioxopiperidin-3-yl)-1,3-dioxoisoindolin-4-yl)amino)ethoxy)ethyl)piperidin-4-yl)-7-(2-hydroxypropan-2-yl)imidazo[1,2-a]pyridin-6-yl)-6-(trifluoromethyl)pyridine-2-carboxamide, reference compound] the figure was more than 10000 nM; with `CC(C)(O)c1cc2nc(C3CCN(CC4CCN(c5cc6c(cc5F)C(=O)N([C@H]5CCC(=O)NC5=O)C6=O)CC4)CC3)cn2cc1NC(=O)c1cccc(C(F)(F)F)n1` [Example 26, (S)-N-(2-(1-((1-(2-(2,6-dioxopiperidin-3-yl)-6-fluoro-1,3-dioxoisoindolin-5-yl)piperidin-4-yl)methyl)piperidin-4-yl)-7-(2-hydroxypropan-2-yl)imidazo[1,2-a]pyridin-6-yl)-6-(trifluoromethyl)pyridine-2-carboxamide], 2.15 nM; with `CC(C)(O)c1cc2nc(C3CCN(C4CN(C5CCN(c6ccc7c(c6)C(=O)N(C6CCC(=O)NC6=O)C7=O)CC5)C4)CC3)cn2cc1NC(=O)c1cccc(C(F)(F)F)n1` (centres unmarked) [Example 20, N-(2-(1-(1-(1-(2-(2,6-dioxopiperidin-3-yl)-1,3-dioxoisoindolin-5-yl)piperidin-4-yl)azetidin-3-yl)piperidin-4-yl)-7-(2-hydroxypropan-2-yl)imidazo[1,2-a]pyridin-6-yl)-6-(trifluoromethyl)pyridine-2-carboxamide], 1.35 nM.
Under `CC(C)(O)c1cc2nc(C3CCN(CCN4CCN(c5ccc6c(c5)C(=O)N(C5CCC(=O)NC5=O)C6)CC4)CC3)cn2cc1NC(=O)c1cccc(C(F)(F)F)n1` (centres unmarked) [Example 13, N-(2-(1-(2-(4-(2-(2,6-dioxopiperidin-3-yl)-3-oxoisoindolin-5-yl)piperazin-1-yl)ethyl)piperidin-4-yl)-7-(2-hydroxypropan-2-yl)imidazo[1,2-a]pyridin-6-yl)-6-(trifluoromethyl)pyridine-2-carboxamide] stands 0.64 nM.
